Test results from patent US20210274788A1, “PESTICIDALLY ACTIVE ISOXAZOLINE D[…] AMIDE GROUP AND AN AZETIDINE SULFONE GROUP” (SYNGENTA CROP PROTECTION AG, priority 2018, published 2021).

How the values were obtained:
Type in all cases: in vivo
[1] = system: Euschistus heros (Neotropical Brown Stink Bug); assay: Euschistus heros (neotropical brown stink bug), sprayed soybean leaves, N2 nymphs; settings: 120 h, application rate 200 ppm, 5 days after infestation, read-out: effect in at least one of the two categories (mortality or growth inhibition)
Description: Euschistus heros (Neotropical Brown Stink Bug)
Soybean leaves on agar in 24-well microtiter plates were sprayed with aqueous test solutions prepared from 10,000 ppm DMSO stock solutions. After drying the leaves were infested with N2 nymphs. The samples were assessed for mortality and growth inhibition in comparison to untreated samples 5 days after infestation.

[2] = system: Plutella xylostella (Diamond Back Moth); assay: Plutella xylostella (diamond back moth), treated artificial diet, eggs; settings: 192 h, application rate 200 ppm, 8 days after infestation, read-out: effect in at least one of the two categories (mortality or growth inhibition)
Description: Plutella xylostella (Diamond Back Moth)
24-well microtiter plates with artificial diet were treated with aqueous test solutions prepared from 10,000 ppm DMSO stock solutions by pipetting. After drying, Plutella eggs were pipetted through a plastic stencil onto a gel blotting paper and the plate was closed with it. The samples were assessed for mortality and growth inhibition in comparison to untreated samples 8 days after infestation.

[3] = system: Spodoptera littoralis (Egyptian Cotton Leaf Worm); assay: Spodoptera littoralis (Egyptian cotton leaf worm), cotton leaf discs, L1 larvae; settings: foliar, 72 h, application rate 200 ppm, 3 days after infestation
Description: Spodoptera littoralis (Egyptian Cotton Leaf Worm)
Cotton leaf discs were placed onto agar in 24-well microtiter plates and sprayed with aqueous test solutions prepared from 10,000 ppm DMSO stock solutions. After drying the leaf discs were infested with five L1 larvae. The samples were assessed for mortality, anti-feeding effect, and growth inhibition in comparison to untreated samples 3 days after infestation. Control of Spodoptera littoralis by a test sample is given when at least one of the categories mortality, anti-feedant effect, and growth inhibition is higher than the untreated sample.

CCOCN(C(=O)c1ccc(C2=NO[C@@](c3cc(Cl)c(F)c(Cl)c3)(C(F)(F)F)C2)cc1C)C1CN(S(=O)(=O)C(F)F)C1 [Compound A3, 4-[(5S)-5-(3,5-dichloro-4-fluoro-phenyl)-5-(trifluoromethyl)-4H-isoxazol-3-yl]-N-[1-(difluoromethylsulfonyl)azetidin-3-yl]-N-(ethoxymethyl)-2-methyl-benzamide]
≥ 80%: percent effect (mortality or growth inhibition) at 200 ppm [1] | percent effect (mortality or growth inhibition) at 200 ppm [2] | percent control (mortality, anti-feedant effect or growth inhibition) at 200 ppm [3]
